According to ChEMBL document CHEMBL1201862, “PubChem BioAssay data set” (2004):
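Grown in 96-well plates, cells were treated for 48 hours with each compound at five concentrations. Insufficient inhibition: endpoint recorded as highest concentration tested. Here, GI50 denotes the concentration required for 50% inhibition of growth.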 Active and inactive are the calls of the source. No stated cut-off is given here; in the data, active = GI50 up to about 1.1 µM and inactive = higher.

What was measured:
Assay in all cases: inhibition of tumour cell growth, NCI panel, 48 h
HT-29 = system: HT-29
M14 = system: M14
NCI-H522 = system: NCI-H522
NCI-H460 = system: NCI-H460
TK-10 = system: TK-10
SK-MEL-2 = system: SK-MEL-2
HCT-15 = system: HCT-15
Hs-578T = system: Hs-578T
KM12 = system: KM12
EKVX = system: EKVX
PC-3 = system: PC-3
COLO 205 = system: COLO 205
SN12C = system: SN12C
786-0 = system: 786-0
HL-60 = system: HL-60
OVCAR-4 = system: OVCAR-4
MDA-N = system: MDA-N
CCRF-CEM = system: CCRF-CEM
A498 = system: A498

Measured: GI50

O=C1c2ccccc2C(=O)c2c(OCCOCCO)cccc21
63.7 µM: HCT-15
active: SN12C 0.714 µM
inactive: HT-29 63.4 µM | M14 > 100 µM | NCI-H522 52.6 µM | NCI-H460 54.7 µM | TK-10 53.6 µM | SK-MEL-2 > 100 µM | Hs-578T 20.5 µM | KM12 46.6 µM | EKVX > 100 µM | PC-3 38.1 µM | COLO 205 > 100 µM | 786-0 > 100 µM | HL-60 > 100 µM | OVCAR-4 72.9 µM

CCOC(=O)CCC(NC(=O)c1ccc(Nc2nc3cc(C(F)(F)F)ccc3nc2C(=O)OCC)cc1)C(=O)OCC (centres undefined)
inactive: HT-29 4.18 µM | M14 4.51 µM | NCI-H522 11.2 µM | NCI-H460 18 µM | MDA-N 6.9 µM | SK-MEL-2 14.1 µM | KM12 > 10 µM | CCRF-CEM > 100 µM | EKVX 15.9 µM | PC-3 9.55 µM | COLO 205 4.14 µM | SN12C 10.7 µM | 786-0 2.44 µM | HL-60 > 100 µM | OVCAR-4 3.54 µM
29.9 µM: HCT-15

CN1CC(c2ccccc2)N(CCCCN2CC(c3ccccc3)N(C)CC2c2ccccc2)CC1c1ccccc1 (centres undefined)
inactive: HT-29 24.4 µM | M14 25.9 µM | NCI-H460 18.1 µM | TK-10 54.1 µM | MDA-N 32.1 µM | SK-MEL-2 30.9 µM | Hs-578T 73.1 µM | KM12 50.5 µM | CCRF-CEM 20.9 µM | EKVX 59 µM | PC-3 18.2 µM | COLO 205 28.8 µM | SN12C 46.5 µM | A498 36 µM | 786-0 73.5 µM | HL-60 29.3 µM | OVCAR-4 37.7 µM
29.2 µM: HCT-15

COc1ccc(C(CC(=O)c2cccs2)C(=O)c2ccc3c(c2)OCO3)cc1 (centres undefined)
> 100 µM: HCT-15
inactive: M14 > 100 µM | NCI-H460 > 100 µM | TK-10 > 100 µM | MDA-N > 100 µM | Hs-578T > 100 µM | KM12 > 100 µM | CCRF-CEM > 100 µM | EKVX > 100 µM | PC-3 > 100 µM | COLO 205 > 100 µM | SN12C > 100 µM | A498 72.1 µM | HL-60 > 100 µM | OVCAR-4 > 100 µM

CCOP(=O)(OCC)C(Cc1ccc(OC)c(OC)c1)N=C(c1ccccc1)c1ccccc1 (centres undefined)
32.5 µM: HCT-15
inactive: HT-29 36.8 µM | M14 51.8 µM | NCI-H522 22.8 µM | NCI-H460 34 µM | TK-10 40.8 µM | MDA-N 59.8 µM | KM12 36.4 µM | CCRF-CEM 24 µM | PC-3 32.4 µM | COLO 205 18.9 µM | SN12C 42 µM | A498 56.8 µM | HL-60 31.3 µM | OVCAR-4 81.7 µM

C/C1=C\[C@@H](C)C[C@@H](C)OC(=O)[C@@H](C)NC(=O)[C@H](Cc2ccc(O)c(Br)c2)N(C)C(=O)CNC(=O)[C@H](C)C1
< 0.01 µM: HCT-15
active: HT-29 < 0.01 µM | M14 < 0.0202 µM | NCI-H522 < 0.01 µM | NCI-H460 < 0.01 µM | TK-10 < 0.0157 µM | MDA-N < 0.0304 µM | Hs-578T < 0.0136 µM | CCRF-CEM < 0.01 µM | EKVX 0.117 µM | PC-3 < 0.01 µM | COLO 205 < 0.01 µM | SN12C 0.119 µM | A498 < 0.0106 µM | 786-0 < 0.0136 µM | HL-60 < 0.01 µM | OVCAR-4 < 0.01 µM

COc1ccc(OC)c2c1C(=O)C(Cl)=C(N1CCN(CCOCCO)CC1)C2=O
inactive: HT-29 6 µM | M14 17.2 µM | NCI-H522 4.3 µM | NCI-H460 18.8 µM | TK-10 19 µM | Hs-578T 16.1 µM | KM12 20.5 µM | CCRF-CEM 2.72 µM | EKVX 18.9 µM | PC-3 6.37 µM | COLO 205 > 10 µM | SN12C 12.4 µM | A498 16.9 µM | 786-0 5.78 µM | OVCAR-4 17.9 µM
active: HL-60 1.08 µM
7.38 µM: HCT-15
